In US4145554A, “3-Nitropyrazole derivatives” (Eli Lilly and Company, priority 1977, dated 1979):
≈ marks a conversion by molar mass, not a printed value. Read-outs that look alike come from different tables or passages of the source. One block for each compound: values may come before it.

Assays:
Escherichia coli = assay: in vitro tube dilution test (MIC); type: cell-based; conditions: tube dilution, read-out: MIC
From the text: (§1) Our compound, 1-(2-hydroxyethyl)-3-nitro-4-pyrazolecarboxamide, has been extensively tested in vitro to determine the range of microorganisms against which it is active. The table of data below reports the minimum inhibitory concentration (MIC) at which the compound is effective in controlling a variety of microorganisms in a standard tube dilution test system. The MIC is reported as micrograms of compound per milliliter.
(§2) Other compounds of our invention have also been tested in the tube dilution test and shown to have in vitro activity against a number of microorganisms. The table below reports tests of a number of exemplary compounds against exemplary microorganisms. The compounds are identified by their numbers in the listing above. The data are reported as the MIC in micrograms per milliliter against the named exemplary microorganisms.

Mycoplasma gallisepticum = assay: in vitro tube dilution test (MIC); type: cell-based; conditions: Mycoplasmoides gallisepticum; Mycoplasma gallisepticum, tube dilution; read-out: MIC
From the text: as §1, §2

Pasteurella multocida = assay: in vitro tube dilution test (MIC); type: cell-based; conditions: tube dilution, read-out: MIC
From the text: as §1
(§3) The other preferred compounds of our invention have also been thoroughly tested in the in vitro tube dilution test.
as §2

Salmonella dublin = assay: in vitro tube dilution test (MIC); type: cell-based; conditions: Salmonella enterica; Salmonella dublin, tube dilution; read-out: MIC
From the text: as §3, §2

[1] = tested on: Staphylococcus aureus sp. 1130; assay: in vitro tube dilution test (MIC); type: cell-based; conditions: Staphylococcus aureus sp. 1130, tube dilution; read-out: MIC
From the text: as §3, §2

Vibrio coli 3811 = assay: in vitro tube dilution test (MIC); type: cell-based; conditions: Campylobacter coli; Vibrio coli 3811, tube dilution; read-out: MIC
From the text: as §3, §2

Streptococcus sp. 80 = assay: in vitro tube dilution test (MIC); type: cell-based; conditions: Streptococcus sp. 80, tube dilution; read-out: MIC
From the text: as §2

H. meleagridis = assay: Blackhead in poultry, chicks; type: in vivo
Description: One- to three-week-old chicks and turkey poults were obtained from homogeneous source flocks and allocated into treatment groups. Some groups were held as infected, untreated controls, and other groups were treated with 3-nitropyrazoles by administering the compounds in the birds' feed. Various concentrations of the pyrazoles were administered to determine the least concentration which protected the birds. A few days after the administration of medicated feed began, all of the birds were challenged by rectally administering a suspension of at least 5,000 H. meleagridis protozoa per chick. The challenge organisms had been originally obtained from infected chickens, and were grown in vitro to provide a supply of organisms for testing.
The birds were held for about seven days after the challenge was administered, during which time the administration of pyrazole-medicated feed was continued. Then all of the chicks, including the untreated, infected controls, were sacrificed and necropsied. The cecum and the liver of each bird were examined for characteristic H. meleagridis lesions.
For each compound, the lowest feed concentration which gave an active response is indicated. While feed consumption data were not taken during the tests, the birds ate at such a rate that a feed concentration of 0.02 percent is equivalent to a treatment rate of about 10 mg./kg./day.

Salmonella typhimurium = assay: Salmonellosis in chickens, single injection to day-old chicks; type: in vivo; conditions: for responders at 60 mg/kg: Salmonella enterica, TYPHIMURIUM, 168 h
Description: A number of our 3-nitropyrazoles have been tested against an induced infection of Salmonella typhimurium in day-old chicks. The test was conducted by administering a single injection of 60 mg./kg. of the compounds to each of five chicks. The following day, the chicks were challenged by the subcutaneous injection of a dispersion of S. typhimurium organisms sufficient to kill most or all of the untreated control chicks.
Some of the compounds were tested more than once, in which instances the data are reported as the total survivors from the multiple treatment groups. Untreated, challenged control groups of chicks were tested together with each batch of groups of chicks to which test compounds were administered. Since the mortality of the untreated control chicks varied somewhat from one group of tests to another, results of the untreated control groups are reported below with each test.

Streptococcus pyogenes = assay: Tests in mice, Streptococcus pyogenes infection; type: in vivo; conditions: S. pyogenes, two subcutaneous doses of 83 mg./kg., 1 and 5 hours
Description: (§4) Groups of laboratory mice were inoculatd with E. coli or with Streptococcus pyogenes. The 3-nitropyrazoles were administered in two different modes to the infected mice. In one group of tests, the compound was administered in two subcutaneous doses of 83 mg./kg. each, given 1 and 5 hours after the mice were inoculated with the organism. The mice were observed, and the results reported below as the number of days the treated mice survived the challenge.
(§5) In the other group of tests, the dose of each compound which allowed 50 percent of the treated mice to survive the challenge was determined. Again, the compound was administered in subcutane divided doses, 1 and 5 hours post-inoculation.

E. coli = assay: Tests in mice, E. coli infection; type: in vivo; conditions: two subcutaneous doses of 83 mg./kg., 1 and 5 hours
Description: as §4, §5

[2] = single injection of 60 mg./kg., seven days, read-out: Survival (converted)

SMILES: CCCCNC(=O)c1cn(CCO)nc1[N+](=O)[O-] [Compound 85, N-butyl-1-(2-hydroxyethyl)-3-nitro-4-pyrazolecarboxamide]
MIC (Escherichia coli): > 50 µg/mL | MIC (Mycoplasma gallisepticum): 3.12 µg/mL (≈ 12.2 µM) | MIC (Pasteurella multocida): > 50 µg/mL | MIC (Salmonella dublin): > 50 µg/mL | MIC [1]: > 50 µg/mL | MIC (Vibrio coli 3811): 50 µg/mL (≈ 195 µM) | MIC (Streptococcus sp. 80): > 50 µg/mL | chicks protected of the 5-bird treated group (Salmonella typhimurium; salmonella challenge): at least three chicks of the 5-bird treated group

SMILES: CC(C)NC(=O)c1cn(CCO)nc1[N+](=O)[O-] [Compound 88, 1-(2-hydroxyethyl)-N-isopropyl-3-nitro-4-pyrazolecarboxamide]
MIC (Escherichia coli): 50 µg/mL (≈ 206 µM) | MIC (Mycoplasma gallisepticum): 3.12 µg/mL (≈ 12.9 µM) | MIC (Pasteurella multocida): 6.25 µg/mL (≈ 25.8 µM) | MIC (Salmonella dublin): > 50 µg/mL | MIC [1]: > 50 µg/mL | MIC (Vibrio coli 3811): 50 µg/mL (≈ 206 µM) | MIC (Streptococcus sp. 80): > 50 µg/mL | Days Survived (Streptococcus pyogenes): 2.0 days | Days Survived (E. coli): 4.8 days

SMILES: NC(=O)c1cn(CC2CC2)nc1[N+](=O)[O-] [Compound 90, 1-cyclopropylmethyl-3-nitro-4-pyrazolecarboxamide]
MIC (Escherichia coli): 50 µg/mL (≈ 238 µM) | MIC (Mycoplasma gallisepticum): > 50 µg/mL | MIC (Pasteurella multocida): 25 µg/mL (≈ 119 µM) | MIC (Salmonella dublin): 50 µg/mL (≈ 238 µM) | MIC [1]: 50 µg/mL (≈ 238 µM) | MIC (Vibrio coli 3811): 50 µg/mL (≈ 238 µM) | MIC (Streptococcus sp. 80): > 50 µg/mL | Active Level (lowest feed concentration which gave an active response) (H. meleagridis): .02% | responders at 60 mg/kg (Salmonella typhimurium; [2]): 80%

SMILES: NC(=O)OCCn1cc(C(N)=O)c([N+](=O)[O-])n1 [Compound 93, [2-(4-carbamoyl-3-nitropyrazol-1-yl)ethyl] carbamate]
MIC (Escherichia coli): 12.5 µg/mL (≈ 51.4 µM) | MIC (Mycoplasma gallisepticum): 12.5 µg/mL (≈ 51.4 µM) | MIC (Pasteurella multocida): < 1.56 µg/mL | MIC (Salmonella dublin): 6.25 µg/mL (≈ 25.7 µM) | MIC [1]: 3.12 µg/mL (≈ 12.8 µM) | MIC (Vibrio coli 3811): 50 µg/mL (≈ 206 µM) | MIC (Streptococcus sp. 80): 6.25 µg/mL (≈ 25.7 µM) | responders at 60 mg/kg (Salmonella typhimurium; read-out: Survival): 100%

Second part, led by results:

MIC (Escherichia coli): 12.5 µg/mL (≈ 58.4 µM) | MIC (Mycoplasma gallisepticum): 50 µg/mL (≈ 233 µM) | MIC (Pasteurella multocida): 50 µg/mL (≈ 233 µM) | MIC (Salmonella dublin): 12.5 µg/mL (≈ 58.4 µM) | MIC [1]: 50 µg/mL (≈ 233 µM) | MIC (Vibrio coli 3811): 50 µg/mL (≈ 233 µM) | MIC (Streptococcus sp. 80): > 50 µg/mL
SMILES: COCCn1cc(C(N)=O)c([N+](=O)[O-])n1 [Compound 65, 1-(2-methoxyethyl)-3-nitro-4-pyrazolecarboxamide]
Active Level (lowest feed concentration which gave an active response) (H. meleagridis): .02% | responders at 60 mg/kg (Salmonella typhimurium; [2]): 70%

MIC (Escherichia coli): 50 µg/mL (≈ 238 µM) | MIC (Mycoplasma gallisepticum): 50 µg/mL (≈ 238 µM) | MIC (Pasteurella multocida): 25 µg/mL (≈ 119 µM) | MIC (Salmonella dublin): 50 µg/mL (≈ 238 µM) | MIC [1]: 50 µg/mL (≈ 238 µM) | MIC (Vibrio coli 3811): 25 µg/mL (≈ 119 µM) | MIC (Streptococcus sp. 80): 50 µg/mL (≈ 238 µM)
SMILES: CCOCCn1cc(C#N)c([N+](=O)[O-])n1 [Compound 84, 1-(2-ethoxyethyl)-3-nitro-4-pyrazolecarbonitrile]
responders at 60 mg/kg (Salmonella typhimurium; [2]): 80%

MIC (Escherichia coli): 6.25 µg/mL (≈ 23.8 µM) | MIC (Mycoplasma gallisepticum): 25 µg/mL (≈ 95 µM) | MIC (Pasteurella multocida): 12.5 µg/mL (≈ 47.5 µM) | MIC (Salmonella dublin): 3.12 µg/mL (≈ 11.9 µM) | MIC [1]: < 1.56 µg/mL | MIC (Vibrio coli 3811): 25 µg/mL (≈ 95 µM) | MIC (Streptococcus sp. 80): > 50 µg/mL
SMILES: NC(=O)c1cn(CCBr)nc1[N+](=O)[O-] [Compound 96, 1-(2-bromoethyl)-3-nitropyrazole-4-carboxamide]
responders at 60 mg/kg (Salmonella typhimurium; [2]): 100%
